From ChEMBL document CHEMBL4715885, “Novel dual LSD1/HDAC6 inhibitors for the treatment of multiple myeloma” (Bioorg Med Chem Lett, 2021)
Converted amounts (≈) assume the structure as drawn. The source made the active and inactive calls. The calls are words filed in the database; no cut-off is given here.

Assays:
[1] = tested on: MM1.S; assay: Antitumour activity against human MM1.S cells xenografted in SCID mouse assessed as tumour growth inhibition at 25 mg/kg, po for 12 days relative to control; format: functional; conditions: 288 h, time 12 day, read-out: TGI
[2] = Initial plasma concentration in Balb/c mouse at 50 mg/kg, po; format: ADME, organism-based; conditions: in vivo
[3] = Inhibition of HDAC phosphorylation (unknown origin); set-up: species or system Homo sapiens
[4] = Half life in Balb/c mouse at 10 mg/kg, iv; format: ADME, organism-based; conditions: in vivo
[5] = Half life in Balb/c mouse at 50 mg/kg, po; format: ADME, organism-based; conditions: in vivo
[6] = target: CYP3A4 (Homo sapiens, UniProt P08684); assay: Inhibition of CYP3A4 (unknown origin) at 10 uM relative to control; format: ADME
Sequence of CYP3A4 (P08684 whole entry): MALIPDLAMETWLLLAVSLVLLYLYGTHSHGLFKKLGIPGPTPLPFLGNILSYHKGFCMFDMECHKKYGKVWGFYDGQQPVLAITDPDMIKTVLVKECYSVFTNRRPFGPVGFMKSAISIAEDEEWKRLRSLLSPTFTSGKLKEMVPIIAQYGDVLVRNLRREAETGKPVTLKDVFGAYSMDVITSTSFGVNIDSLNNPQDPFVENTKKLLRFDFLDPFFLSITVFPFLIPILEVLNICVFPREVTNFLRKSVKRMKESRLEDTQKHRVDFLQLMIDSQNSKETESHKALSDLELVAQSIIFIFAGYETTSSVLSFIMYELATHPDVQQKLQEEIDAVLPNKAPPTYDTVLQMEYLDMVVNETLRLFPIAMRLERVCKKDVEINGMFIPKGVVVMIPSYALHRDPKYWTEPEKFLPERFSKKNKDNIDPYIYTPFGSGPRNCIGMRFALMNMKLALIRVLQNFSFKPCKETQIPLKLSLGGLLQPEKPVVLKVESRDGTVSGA

[7] = Permeability from apical to basolateral side in human Caco2 cells; format: ADME, cell-based; conditions: Caco-2, read-out: permeability
[8] = target: Voltage-gated inwardly rectifying potassium channel KCNH2 (Homo sapiens, UniProt Q12809); assay: Inhibition of human ERG
Sequence of Voltage-gated inwardly rectifying potassium channel KCNH2 (Q12809 whole entry): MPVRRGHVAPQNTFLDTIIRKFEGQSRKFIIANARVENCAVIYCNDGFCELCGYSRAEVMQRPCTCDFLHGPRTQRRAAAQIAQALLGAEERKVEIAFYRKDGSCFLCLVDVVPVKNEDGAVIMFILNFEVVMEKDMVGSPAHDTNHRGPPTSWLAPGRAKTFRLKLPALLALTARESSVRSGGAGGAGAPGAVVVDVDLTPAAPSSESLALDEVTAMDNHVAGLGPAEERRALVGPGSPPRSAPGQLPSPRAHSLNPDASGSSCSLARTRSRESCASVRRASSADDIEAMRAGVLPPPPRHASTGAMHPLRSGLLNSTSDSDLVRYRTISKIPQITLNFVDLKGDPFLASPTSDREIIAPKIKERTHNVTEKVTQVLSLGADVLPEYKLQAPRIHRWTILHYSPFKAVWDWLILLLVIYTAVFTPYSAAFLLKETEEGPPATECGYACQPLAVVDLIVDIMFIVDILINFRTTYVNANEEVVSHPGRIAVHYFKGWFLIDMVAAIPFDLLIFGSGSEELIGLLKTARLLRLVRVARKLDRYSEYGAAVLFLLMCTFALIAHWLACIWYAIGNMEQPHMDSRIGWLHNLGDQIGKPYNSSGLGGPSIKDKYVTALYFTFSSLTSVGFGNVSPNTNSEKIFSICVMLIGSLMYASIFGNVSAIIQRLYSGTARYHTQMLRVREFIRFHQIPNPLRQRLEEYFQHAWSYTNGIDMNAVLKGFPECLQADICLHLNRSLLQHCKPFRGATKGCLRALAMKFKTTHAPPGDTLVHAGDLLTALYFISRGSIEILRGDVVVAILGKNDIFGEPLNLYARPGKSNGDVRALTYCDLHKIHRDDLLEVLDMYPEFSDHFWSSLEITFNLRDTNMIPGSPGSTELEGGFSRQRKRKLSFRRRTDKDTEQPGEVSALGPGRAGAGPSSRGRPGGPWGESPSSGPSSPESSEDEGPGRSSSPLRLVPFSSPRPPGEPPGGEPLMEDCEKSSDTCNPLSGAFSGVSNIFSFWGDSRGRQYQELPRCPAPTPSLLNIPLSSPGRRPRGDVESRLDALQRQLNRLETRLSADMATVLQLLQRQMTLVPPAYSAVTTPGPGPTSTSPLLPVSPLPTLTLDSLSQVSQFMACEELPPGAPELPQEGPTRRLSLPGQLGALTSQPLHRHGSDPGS

[9] = Cmax in Balb/c mouse at 10 mg/kg, iv; format: ADME, organism-based; set-up: route intravenous, dose 10 mg/kg; conditions: in vivo
[10] = Cmax in Balb/c mouse at 50 mg/kg, po; format: ADME, organism-based; set-up: route oral, dose 50 mg/kg; conditions: in vivo
[11] = Stability in mouse liver microsomes assessed as parent compound remaining measured after 30 mins; format: ADME, Microsome; conditions: microsomes, 0.5 h
[12] = Antiproliferative activity against human MM1.R cells assessed as reduction in cell viability after 144 hrs; format: functional, cell-based; conditions: MM.1R
[13] = Drug concentration in plasma of mouse xenografted with human MM1.S cells at 50 mg/kg, po dosed daily for 12 days; format: ADME, organism-based; conditions: time 12 day
[14] = Solubility of compound; format: physicochemical
[15] = target: CYP2D6 (Homo sapiens, UniProt P10635); assay: Inhibition of CYP2D6 (unknown origin) at 10 uM relative to control; format: ADME
Sequence of CYP2D6 (P10635 whole entry): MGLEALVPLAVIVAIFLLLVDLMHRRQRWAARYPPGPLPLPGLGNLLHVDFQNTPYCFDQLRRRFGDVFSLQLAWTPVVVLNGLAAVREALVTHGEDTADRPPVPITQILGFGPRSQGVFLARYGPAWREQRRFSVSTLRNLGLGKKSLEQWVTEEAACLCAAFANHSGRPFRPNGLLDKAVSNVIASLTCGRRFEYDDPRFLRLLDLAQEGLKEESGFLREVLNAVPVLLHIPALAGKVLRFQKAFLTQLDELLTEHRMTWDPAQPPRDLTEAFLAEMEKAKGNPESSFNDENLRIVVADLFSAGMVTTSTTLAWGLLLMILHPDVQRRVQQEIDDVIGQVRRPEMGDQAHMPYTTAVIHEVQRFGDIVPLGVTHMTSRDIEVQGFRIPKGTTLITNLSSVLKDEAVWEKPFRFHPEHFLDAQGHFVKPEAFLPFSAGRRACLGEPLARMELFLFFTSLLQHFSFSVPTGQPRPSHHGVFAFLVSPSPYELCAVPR

[16] = Stability in human liver microsomes assessed as parent compound remaining measured after 30 mins; format: ADME, Microsome; conditions: microsomes, 0.5 h
[17] = target: T1, Amine oxidase [flavin-containing] A (Homo sapiens, UniProt P21397); assay: Inhibition of MAO-A (unknown origin)
T1 sequence (P21397 whole entry): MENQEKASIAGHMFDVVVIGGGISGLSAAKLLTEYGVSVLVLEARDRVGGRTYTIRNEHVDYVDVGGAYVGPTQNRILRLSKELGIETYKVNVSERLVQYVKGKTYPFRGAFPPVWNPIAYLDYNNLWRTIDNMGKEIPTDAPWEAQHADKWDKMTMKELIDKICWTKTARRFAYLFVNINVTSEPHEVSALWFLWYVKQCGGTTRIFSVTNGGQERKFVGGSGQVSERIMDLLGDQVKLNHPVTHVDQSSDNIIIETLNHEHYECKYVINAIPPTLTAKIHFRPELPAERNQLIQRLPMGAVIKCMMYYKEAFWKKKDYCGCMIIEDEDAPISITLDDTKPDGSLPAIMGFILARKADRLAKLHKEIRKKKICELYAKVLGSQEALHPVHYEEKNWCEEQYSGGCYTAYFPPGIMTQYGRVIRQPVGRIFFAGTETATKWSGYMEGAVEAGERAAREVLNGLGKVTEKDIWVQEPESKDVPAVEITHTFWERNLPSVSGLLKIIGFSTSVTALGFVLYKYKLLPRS

[18] = target: T2, Amine oxidase [flavin-containing] B (Homo sapiens, UniProt P27338); assay: Inhibition of MAO-B (unknown origin)
T2 sequence (P27338 whole entry): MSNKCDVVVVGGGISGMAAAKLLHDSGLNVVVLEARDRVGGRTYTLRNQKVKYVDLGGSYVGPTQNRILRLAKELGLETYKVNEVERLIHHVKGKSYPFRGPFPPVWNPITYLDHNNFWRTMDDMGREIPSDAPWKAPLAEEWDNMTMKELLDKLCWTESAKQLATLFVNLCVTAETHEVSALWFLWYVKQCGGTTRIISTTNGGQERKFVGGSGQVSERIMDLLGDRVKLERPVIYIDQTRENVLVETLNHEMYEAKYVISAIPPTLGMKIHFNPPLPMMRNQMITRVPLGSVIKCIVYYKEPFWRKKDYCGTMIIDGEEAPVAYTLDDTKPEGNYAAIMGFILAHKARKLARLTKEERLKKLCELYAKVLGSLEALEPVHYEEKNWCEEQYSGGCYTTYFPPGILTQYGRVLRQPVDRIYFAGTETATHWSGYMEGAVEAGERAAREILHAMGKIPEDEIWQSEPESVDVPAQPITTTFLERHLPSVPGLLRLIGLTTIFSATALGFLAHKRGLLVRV

[19] = Clearance in Balb/c mouse at 50 mg/kg, po; format: ADME, organism-based; conditions: in vivo
[20] = Volume of distribution in Balb/c mouse at 50 mg/kg, po; format: ADME, organism-based; conditions: in vivo
[21] = Protein binding in plasma (unknown origin) assessed as unbound fraction; format: ADME, cell-free
[22] = Oral bioavailability in Balb/c mouse at 50 mg/kg; format: ADME, organism-based; conditions: in vivo
[23] = Drug concentration in tumour of mouse xenografted with human MM1.S cells at 50 mg/kg, po dosed daily for 12 days; format: ADME, organism-based, Neoplasm; conditions: time 12 day, read-out: Drug uptake
[24] = target: T3, Polyamine deacetylase HDAC10 (Homo sapiens, UniProt Q969S8); assay: Inhibition of HDAC10 (unknown origin)
T3 sequence (Q969S8 whole entry): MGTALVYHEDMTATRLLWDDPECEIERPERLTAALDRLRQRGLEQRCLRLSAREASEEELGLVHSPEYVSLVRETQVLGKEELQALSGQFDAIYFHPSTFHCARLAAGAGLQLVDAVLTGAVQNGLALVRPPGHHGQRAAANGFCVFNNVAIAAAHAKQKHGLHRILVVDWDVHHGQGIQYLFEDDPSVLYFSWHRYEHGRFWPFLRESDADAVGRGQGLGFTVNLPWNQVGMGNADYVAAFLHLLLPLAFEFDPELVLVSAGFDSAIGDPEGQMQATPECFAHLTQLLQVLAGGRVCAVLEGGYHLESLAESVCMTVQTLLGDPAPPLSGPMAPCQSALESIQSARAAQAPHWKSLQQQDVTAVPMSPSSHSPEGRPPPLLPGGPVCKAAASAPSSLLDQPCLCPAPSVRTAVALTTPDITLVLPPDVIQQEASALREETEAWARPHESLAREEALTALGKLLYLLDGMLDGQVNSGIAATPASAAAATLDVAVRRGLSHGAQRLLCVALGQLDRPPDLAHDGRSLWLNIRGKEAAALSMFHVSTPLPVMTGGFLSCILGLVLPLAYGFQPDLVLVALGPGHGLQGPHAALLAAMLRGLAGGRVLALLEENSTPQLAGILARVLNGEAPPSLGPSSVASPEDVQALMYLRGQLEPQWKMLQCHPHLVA

[25] = Toxicity in SCID mouse xenografted with human MM1.S cells assessed as induction of body weight loss at 50 mg/kg, po dosed daily for 12 days; format: organism-based; conditions: in vivo, 288 h, time 12 day
[26] = AUC (0 to t) in Balb/c mouse at 10 mg/kg, iv; format: ADME, organism-based; set-up: dose 10 mg/kg; conditions: in vivo
[27] = Permeability from basolateral to apical side in human Caco2 cells; format: ADME, cell-based; conditions: Caco-2, read-out: permeability
[28] = tested on: RPMI-8226; assay: Antiproliferative activity against human RPMI-8226 cells assessed as reduction in cell viability after 144 hrs; format: functional, cell-based; conditions: RPMI-8226, 144 h
[29] = target: T4, Protein deacetylase HDAC6 (Homo sapiens, UniProt Q9UBN7); assay: Inhibition of human HDAC6 (unknown origin) using RHKKAc as substrate by fluorescence method
T4 sequence (Q9UBN7 whole entry): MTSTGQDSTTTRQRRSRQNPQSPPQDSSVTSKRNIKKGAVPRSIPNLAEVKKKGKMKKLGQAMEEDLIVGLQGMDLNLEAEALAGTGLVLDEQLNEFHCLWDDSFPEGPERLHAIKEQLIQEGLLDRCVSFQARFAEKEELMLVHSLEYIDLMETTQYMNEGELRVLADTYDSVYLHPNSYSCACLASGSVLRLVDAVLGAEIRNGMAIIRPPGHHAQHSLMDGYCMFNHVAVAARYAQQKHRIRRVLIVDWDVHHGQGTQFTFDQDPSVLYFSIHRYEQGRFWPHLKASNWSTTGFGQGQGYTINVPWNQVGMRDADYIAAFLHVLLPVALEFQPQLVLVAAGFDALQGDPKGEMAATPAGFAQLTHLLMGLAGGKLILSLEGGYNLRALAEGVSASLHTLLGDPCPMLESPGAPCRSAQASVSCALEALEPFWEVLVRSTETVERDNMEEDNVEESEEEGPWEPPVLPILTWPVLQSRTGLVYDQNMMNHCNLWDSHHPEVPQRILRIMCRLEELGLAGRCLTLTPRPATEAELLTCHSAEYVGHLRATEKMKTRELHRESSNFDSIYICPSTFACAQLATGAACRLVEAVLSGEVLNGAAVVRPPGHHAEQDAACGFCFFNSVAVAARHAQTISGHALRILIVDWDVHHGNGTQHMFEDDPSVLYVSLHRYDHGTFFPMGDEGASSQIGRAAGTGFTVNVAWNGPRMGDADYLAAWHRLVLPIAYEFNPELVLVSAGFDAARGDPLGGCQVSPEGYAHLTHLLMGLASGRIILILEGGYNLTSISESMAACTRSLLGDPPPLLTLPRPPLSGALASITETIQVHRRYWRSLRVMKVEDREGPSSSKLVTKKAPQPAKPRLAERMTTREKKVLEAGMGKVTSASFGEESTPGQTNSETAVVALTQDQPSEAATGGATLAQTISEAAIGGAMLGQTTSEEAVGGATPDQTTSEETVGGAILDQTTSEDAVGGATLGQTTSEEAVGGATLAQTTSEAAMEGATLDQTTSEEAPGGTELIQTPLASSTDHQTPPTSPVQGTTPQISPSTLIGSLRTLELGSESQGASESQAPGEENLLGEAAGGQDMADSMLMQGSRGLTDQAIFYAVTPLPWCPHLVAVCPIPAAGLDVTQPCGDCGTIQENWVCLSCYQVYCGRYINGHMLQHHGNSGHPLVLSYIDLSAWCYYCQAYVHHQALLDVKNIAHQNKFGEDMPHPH

[30] = tested on: MM1.S; assay: Antiproliferative activity against human MM1.S cells assessed as reduction in cell viability at 10 uM after 144 hrs relative to control; format: functional
[31] = tested on: MM1.S; assay: Antiproliferative activity against human MM1.S cells assessed as reduction in cell viability after 144 hrs; format: functional, cell-based
[32] = target: Histone deacetylase 1 (Homo sapiens) (UniProt Q13547); assay: Inhibition of human HDAC1 at 1uM using RHKKAc as substrate by fluorescence method relative to control
Sequence of Histone deacetylase 1 (Homo sapiens) (Q13547 whole entry): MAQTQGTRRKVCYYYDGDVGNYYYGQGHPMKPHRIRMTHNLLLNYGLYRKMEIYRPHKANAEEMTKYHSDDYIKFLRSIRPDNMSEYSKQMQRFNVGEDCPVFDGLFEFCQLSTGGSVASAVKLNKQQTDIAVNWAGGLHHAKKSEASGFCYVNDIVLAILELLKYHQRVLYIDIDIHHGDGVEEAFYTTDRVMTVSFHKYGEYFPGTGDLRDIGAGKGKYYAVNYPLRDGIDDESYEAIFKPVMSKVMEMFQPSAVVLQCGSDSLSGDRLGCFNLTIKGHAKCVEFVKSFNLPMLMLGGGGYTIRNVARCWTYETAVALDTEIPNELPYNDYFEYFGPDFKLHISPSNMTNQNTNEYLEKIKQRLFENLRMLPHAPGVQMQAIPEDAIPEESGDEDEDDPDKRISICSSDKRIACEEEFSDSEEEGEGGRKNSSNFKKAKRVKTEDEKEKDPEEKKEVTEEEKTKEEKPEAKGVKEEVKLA

## O=C(NO)c1ccc(CCCN2CCC(CN[C@H]3C[C@@H]3c3ccccc3)CC2)cc1 (racemic)
[1]
  inhibition in vivo at 25 mg/kg: 67%
[2]
  C0: 1406 ng/mL
[3]
  IC50: 1.78 µM
[4]
  half-life: 3.3 h
[5]
  half-life: 2.5 h
[6]
  inhibition at 10 µM: 11%
[7]
  Papp A→B: 2.67 ×10⁻⁶ cm/s
[8]
  IC50: 5.6 µM
[9]
  Cmax: 821 ng/mL
[10]
  Cmax: 904 ng/mL
[11]
  Stabilty: 56%
[12]
  EC50: 0.006 µM
[13]
  concentration at 288 h: 52 ng/mL
[14]
  solubility: 110 µM (≈ 44.8 µg/mL)
[15]
  inhibition at 10 µM: 54%
[16]
  Stabilty: 40%
[17]
  IC50: 8.6 µM
[18]
  IC50: 6.6 µM
[19]
  CL/F: 233 mL/min/kg
[20]
  Vd: 66 L/kg
[21]
  fraction unbound: 0.45
[22]
  bioavailability: 44%
[23]
  concentration at 288 h: 216 ng/mL
[24]
  IC50: > 10 µM
[25]
  Activity: Non-Toxic
[26]
  AUC(0-t): 1520 ng·h/mL
[27]
  Papp B→A: 9.6 ×10⁻⁶ cm/s
[28]
  EC50: 0.28 µM

## Cl.Cl.NC1CCC(N[C@@H]2C[C@H]2c2ccccc2)CC1 (some centres not stated)
[29]
  IC50: Not Active
[30]
  Activity: 30%
[31]
  EC50: > 10 µM
[32]
  inhibition: inactive
